From US4103082A, “Aminocyclitol derivatives and process for producing the same” (priority 1975, dated 1978)
Converted amounts (≈) assume the structure as drawn.

Tests used:
[1] = test system: Bacillus subtilis ATCC 6633; assay: paper disk method, inhibitory zone diameter; type: cell-based; conditions: read-out: inhibitory zone diameter
E. coli K-12 = assay: paper disk method, inhibitory zone diameter; type: cell-based; conditions: Escherichia coli, K12, read-out: inhibitory zone diameter
[2] = test system: Staphylococcus aureus 6538P; assay: paper disk method, inhibitory zone diameter; type: cell-based; conditions: read-out: inhibitory zone diameter
[3] = test system: E. coli HL-1629 (Kanamycin-resistant strain); assay: microbe, parasite or virus in culture; type: cell-based; conditions: Escherichia coli, read-out: inhibitory zone diameter
Klebsiella 6 = assay: paper disk method, inhibitory zone diameter; type: cell-based; conditions: Klebsiella, 6
Klebsiella 7 = assay: paper disk method, inhibitory zone diameter; type: cell-based; conditions: Klebsiella, 7
Mycobacterium 607 = assay: paper disk method, inhibitory zone diameter; type: cell-based; conditions: Mycobacterium, 607, read-out: inhibitory zone diameter
[4] = test system: Staphylococcus aureus 209P JC-1; assay: antibacterial activity (Minimum Inhibitory Concentration); type: cell-based; conditions: Staphylococcus aureus 209P JC-1; read-out: MIC
[5] = test system: Staphylococcus aureus Smith S-424; assay: as above; type: cell-based; conditions: SMITHS424; Staphylococcus aureus Smith S-424; read-out: MIC
[6] = test system: Staphylococcus aureus No. 26; assay: as above; type: cell-based; conditions: Staphylococcus aureus No. 26; read-out: MIC
[7] = test system: Staphylococcus aureus C73-4; assay: as above; type: cell-based; conditions: C734; Staphylococcus aureus C73-4; read-out: MIC
[8] = test system: Staphylococcus aureus C73-10; assay: as above; type: cell-based; conditions: C7310; Staphylococcus aureus C73-10; read-out: MIC
[9] = test system: Staphylococcus aureus C73-21; assay: as above; type: cell-based; conditions: C7321; Staphylococcus aureus C73-21; read-out: MIC
[10] = test system: Staphylococcus albus PCI-1200A; assay: as above; type: cell-based; conditions: PCI1200A; Staphylococcus albus PCI-1200A; read-out: MIC
[11] = test system: Bacillus subtilis ATCC 6633; assay: as above; type: cell-based; conditions: ATCC6633; Bacillus subtilis ATCC 6633; read-out: MIC
[12] = test system: Bacillus anthracis No. 119; assay: microbe, parasite or virus in culture; type: cell-based
E. coli C73-1 = assay: antibacterial activity (Minimum Inhibitory Concentration); type: cell-based; conditions: Escherichia coli, C731; E. coli C73-1; read-out: MIC
E. coli C73-4 = assay: as above; type: cell-based; conditions: Escherichia coli, C734; E. coli C73-4; read-out: MIC
E. coli C73-12 = assay: as above; type: cell-based; conditions: Escherichia coli, C7312
[13] = test system: Salmonella species C73-30; assay: as above; type: cell-based; conditions: C7330
[14] = test system: Shigella dysenteriae Shigae; assay: microbe, parasite or virus in culture; type: cell-based
Klebsiella pneumoniae = assay: antibacterial activity (Minimum Inhibitory Concentration); type: cell-based; conditions: read-out: MIC
Proteus morganii Kono = assay: as above; type: cell-based; conditions: Morganella morganii
Proteus species C73-23 = assay: as above; type: cell-based; conditions: Proteus species C73-23; read-out: MIC
Proteus species C73-25 = assay: as above; type: cell-based; conditions: Proteus species C73-25; read-out: MIC
Proteus species C73-33 = assay: as above; type: cell-based; conditions: Proteus species C73-33; read-out: MIC
Proteus species C73-34 = assay: as above; type: cell-based; conditions: Proteus species C73-34; read-out: MIC
[15] = test system: Enterococcus species C73-33; assay: as above; type: cell-based; conditions: C7333; Enterococcus species C73-33; read-out: MIC
[16] = test system: Enterococcus species C73-17; assay: as above; type: cell-based; conditions: C7317; Enterococcus species C73-17; read-out: MIC
[17] = test system: Vibrio parahaemolyticus K-3; assay: as above; type: cell-based; conditions: K3; Vibrio parahaemolyticus K-3; read-out: MIC
[18] = test system: Vibrio parahaemolyticus K-5; assay: as above; type: cell-based; conditions: K5; Vibrio parahaemolyticus K-5; read-out: MIC
microorganisms indicated = assay: antimicrobial activities, paper disk method (general statement); type: cell-based; conditions: Tables 1 to 4
Method: The inhibitory activities were determined at various concentrations of the compounds using the paper disk method against the microorganisms indicated and the numerical values show the inhibitory zone diameter in terms of mm.

male ICR mice = assay: acute toxicity; conditions: intravenous administration, 200 mg/kg
[19] = 2000 γ/ml, read-out: inhibitory zone diameter

## NC[C@H]1O[C@H](O[C@H]2[C@H](O)C[C@H](N)C[C@@H]2N)[C@H](N)[C@@H](O)[C@@H]1O [6-Deoxyneamine, 6-deoxyneamine]
[1]; ATCC6633, 7.8 γ/ml
  zone of inhibition at 7.8 µg/mL: 15 mm
[1]; ATCC6633, 15.6 γ/ml
  zone of inhibition at 15.6 µg/mL: 17.6 mm
[1]; ATCC6633, 31.2 γ/ml
  zone of inhibition at 31.2 µg/mL: 21.1 mm
[1]; ATCC6633, 62.5 γ/ml
  zone of inhibition at 62.5 µg/mL: 22.7 mm
[1]; ATCC6633, 125 γ/ml
  zone of inhibition at 125 µg/mL: 25.6 mm
[1]; ATCC6633, 250 γ/ml
  zone of inhibition at 250 µg/mL: 28.2 mm
[1]; ATCC6633, 500 γ/ml
  zone of inhibition at 500 µg/mL: 31.2 mm
[1]; ATCC6633, 1000 γ/ml
  zone of inhibition at 1000 µg/mL: 33.2 mm
[1]; ATCC6633, 2000 γ/ml
  zone of inhibition at 2000 µg/mL: 35.7 mm
E. coli K-12; 7.8 γ/ml
  zone of inhibition at 7.8 µg/mL: 0 mm
E. coli K-12; 15.6 γ/ml
  zone of inhibition at 15.6 µg/mL: 11.2 mm
E. coli K-12; 31.2 γ/ml
  zone of inhibition at 31.2 µg/mL: 12.9 mm
E. coli K-12; 62.5 γ/ml
  zone of inhibition at 62.5 µg/mL: 16 mm
E. coli K-12; 125 γ/ml
  zone of inhibition at 125 µg/mL: 18.2 mm
E. coli K-12; 250 γ/ml
  zone of inhibition at 250 µg/mL: 20.3 mm
E. coli K-12; 500 γ/ml
  zone of inhibition at 500 µg/mL: 21.9 mm
E. coli K-12; 1000 γ/ml
  zone of inhibition at 1000 µg/mL: 25 mm
E. coli K-12; 2000 γ/ml
  zone of inhibition at 2000 µg/mL: 26.7 mm
[2]; 7.8 γ/ml
  zone of inhibition at 7.8 µg/mL: 0 mm
[2]; 15.6 γ/ml
  zone of inhibition at 15.6 µg/mL: 0 mm
[2]; 31.2 γ/ml
  zone of inhibition at 31.2 µg/mL: 10 mm
[2]; 62.5 γ/ml
  zone of inhibition at 62.5 µg/mL: 12 mm
[2]; 125 γ/ml
  zone of inhibition at 125 µg/mL: 15.7 mm
[2]; 250 γ/ml
  zone of inhibition at 250 µg/mL: 18.1 mm
[2]; 500 γ/ml
  zone of inhibition at 500 µg/mL: 20 mm
[2]; 1000 γ/ml
  zone of inhibition at 1000 µg/mL: 22.2 mm
[2]; 2000 γ/ml
  zone of inhibition at 2000 µg/mL: 24.2 mm
[3]
  zone of inhibition at 500 µg/mL: 0 mm
  zone of inhibition at 1000 µg/mL: 12.5 mm
  zone of inhibition at 2000 µg/mL: 18 mm
Klebsiella 6; 250 γ/ml
  zone of inhibition at 250 µg/mL: 0 mm
Klebsiella 6; 500 γ/ml
  zone of inhibition at 500 µg/mL: 11.1 mm
Klebsiella 6; 1000 γ/ml
  zone of inhibition at 1000 µg/mL: 14.1 mm
Klebsiella 6; [19]
  zone of inhibition at 2000 µg/mL: 16.4 mm
Klebsiella 7; 250 γ/ml
  zone of inhibition at 250 µg/mL: 0 mm
Klebsiella 7; 500 γ/ml
  zone of inhibition at 500 µg/mL: 11.2 mm
Klebsiella 7; 1000 γ/ml
  zone of inhibition at 1000 µg/mL: 15.6 mm
Klebsiella 7; [19]
  zone of inhibition at 2000 µg/mL: 17.5 mm
Mycobacterium 607; 62.5 γ/ml
  zone of inhibition at 62.5 µg/mL: 0 mm
Mycobacterium 607; 125 γ/ml
  zone of inhibition at 125 µg/mL: 11 mm
Mycobacterium 607; 250 γ/ml
  zone of inhibition at 250 µg/mL: 16.2 mm
Mycobacterium 607; 500 γ/ml
  zone of inhibition at 500 µg/mL: 21.7 mm
Mycobacterium 607; 1000 γ/ml
  zone of inhibition at 1000 µg/mL: 28.3 mm
Mycobacterium 607; 2000 γ/ml
  zone of inhibition at 2000 µg/mL: 33.6 mm
[4]
  MIC: 1.56 µg/mL (≈ 5.09 µM)
[5]
  MIC: 3.13 µg/mL (≈ 10.2 µM)
[6]
  MIC: 6.25 µg/mL (≈ 20.4 µM)
[7]
  MIC: 6.25 µg/mL (≈ 20.4 µM)
[8]
  MIC: 6.25 µg/mL (≈ 20.4 µM)
[9]
  MIC: 1.56 µg/mL (≈ 5.09 µM)
[10]
  MIC: 3.13 µg/mL (≈ 10.2 µM)
[11]
  MIC: 0.78 µg/mL (≈ 2.55 µM)
[12]
  MIC: 12.5 µg/mL (≈ 40.8 µM)
E. coli C73-1
  MIC: 25 µg/mL (≈ 81.6 µM)
E. coli C73-4
  MIC: 25 µg/mL (≈ 81.6 µM)
E. coli C73-12
  MIC: 12.5 µg/mL (≈ 40.8 µM)
[13]
  MIC: 50 µg/mL (≈ 163 µM)
[14]
  MIC: 12.5 µg/mL (≈ 40.8 µM)
Klebsiella pneumoniae
  MIC: 25 µg/mL (≈ 81.6 µM)
Proteus morganii Kono
  MIC: 12.5 µg/mL (≈ 40.8 µM)
Proteus species C73-23
  MIC: 25 µg/mL (≈ 81.6 µM)
Proteus species C73-25
  MIC: 6.25 µg/mL (≈ 20.4 µM)
Proteus species C73-33
  MIC: 100 µg/mL (≈ 326 µM)
Proteus species C73-34
  MIC: 25 µg/mL (≈ 81.6 µM)
[15]
  MIC: 25 µg/mL (≈ 81.6 µM)
[16]
  MIC: 50 µg/mL (≈ 163 µM)
[17]
  MIC: 1.56 µg/mL (≈ 5.09 µM)
[18]
  MIC: 25 µg/mL (≈ 81.6 µM)
Microorganisms indicated
  antimicrobial activities relative to neamine: superior to those of the parent compound neamine
Male ICR mice
  acute toxicity, survival: all male ICR mice were survived
